Laboratory results from ChEMBL document CHEMBL3286265, “Three new anti-proliferative Annonaceous acetogenins with mono-tetrahydrofuran ring from graviola fruit (Annona muricata)” (Bioorg Med Chem Lett, 2014).
The source made the active and inactive calls. The rule behind the calls is not given here.

system: PC-3; assay: Antiproliferative activity against human PC3 cells at 20 ug/ml after 24 hrs by MTT assay; format: functional, cell-based

SMILES	inhibition
CCCCCCCC(O)CCCCCCC[C@@H](O)[C@H]1CC[C@H]([C@H](O)CCCCCCC[C@H](O)CC2=C[C@H](C)OC2=O)O1 (stereo partly drawn)	Active
CCCCCCCC[C@@H](O)[C@@H](O)CC[C@H](O)[C@H]1CC[C@H](CCCCCCCCCCC[C@H](O)CC2=C[C@H](C)OC2=O)O1	Active
CCCCCCCCCCCC[C@H](O)[C@H]1CC[C@H]([C@H](O)CC(O)CCCCCCCC[C@H](O)CC2=C[C@H](C)OC2=O)O1 (stereo partly drawn)	Active
